Measurements from patent publication US12378208B2, “N-substituted oseltamivir derivatives with antimicrobial activity” (THE HONG KONG POLYTECHNIC UNIVERSITY, priority 2019, dated 2025).

Key:
[1] = system: oseltamivir-resistant strain 09v71923; assay: Plaque assay in MDCK cells; format: cell-based, influenza A virus (H1N1 pandemic)
[2] = system: oseltamivir-resistant strain 11v17178; assay: Plaque assay in MDCK cells; format: cell-based, influenza A virus (H1N1 pandemic)
[3] = day 3, vs DMSO vehicle, two concentrations

Compound | plaque size [1, 3] | plaque size [2, 3] | plaque size ([1]; 0.2 nM oseltamivir, day 3) | plaque size ([2]; 0.1 nM oseltamivir, day 3)
CCC(CC)O[C@@H]1C=C(C(=O)O)C[C@H](NCc2ccc(-c3c(C)noc3C)o2)[C@H]1NC(C)=O [Compound S22, (3R,4R,5S)-4-acetamido-5-(((5-(3,5-dimethylisoxazol-4-yl)furan-2-yl)methyl)amino)-3-(pentan-3-yloxy)cyclohex-1-ene-1-carboxylic acid] | No inhibition effect | No inhibition effect | – | –
CCOC(=O)C1=C[C@@H](OC(CC)CC)[C@H](NC(C)=O)[C@@H](N)C1 [oseltamivir] | could not reduce the plaque size | – | larger plaque size | significant reduction
CCC(CC)O[C@@H]1C=C(C(=O)O)C[C@H](NCc2noc(-c3ccco3)n2)[C@H]1NC(C)=O [Compound S7, (3R,4R,5S)-4-acetamido-5-(((5-(furan-2-yl)-1,2,4-oxadiazol-3-yl)methyl)amino)-3-(pentan-3-yloxy)cyclohex-1-ene-1-carboxylic acid] | No inhibition effect | No inhibition effect | – | –
